The source of these data is patent US9497966B2, “Pesticidal compositions and related methods” (DOW AGROSCIENCES LLC, priority 2013, dated 2016).

What is called mortality is the share of the test organisms that died.

Bounds are passed on as bounds.

In test [1] the test system is Sweetpotato Whitefly-Crawler (Bemisia tabaci) (WF) (BEMITA). Description: Insecticidal test for Sweetpotato Whitefly-Crawler in foliar spray assay on cotton plants. It is filed as in vivo. The conditions noted are these: 216 h, 200 ppm foliar spray on cotton, graded after 9 days, Abbott-corrected % control, read-out: % Control (or Mortality) rating, WF. The procedure:
Example B: Insecticidal Test for Sweetpotato Whitefly-Crawler (Bemisia tabaci) (WF) (BEMITA) in Foliar Spray Assay
Cotton plants (Gossypium hirsutum) grown in 3-inch pots, with 1 small (4-5 cm) true leaves, were used as test substrate. The plants were infested with 200-400 whitefly eggs 4-5 days prior to chemical application. Four pots with individual plants were used for each treatment. Test compounds (2 mg) were dissolved in 1 mL of acetone solvent, forming stock solutions of 2000 ppm test compound. The stock solutions were diluted 10× with 0.025% Tween 20 in H2O (diluents) to obtain the solution at 200 ppm test compound. A hand-held aspirator-type sprayer was used for spraying a solution to both sides of cotton leaves until runoff. Reference plants (solvent check) were sprayed with the diluent only containing 10% by volume of acetone solvent. Treated plants were held in a holding room for 9 days at approximately 25° C. and ambient relative humidity (RH) prior to grading. Evaluation was conducted by counting the number of live 3-4 nymph stage per plant under a microscope. Percent control was measured by using Abbott's correction formula (W. S. Abbott, “A Method of Computing the Effectiveness of an Insecticide,” J. Econ. Entomol. 18 (1925), pp. 265-267) as follows. Corrected % Control=100*(X−Y)/X • where • X=No. of live nymphs on solvent check plants and • Y=No. of live nymphs on treated plants.
Biological Data for Green Peach Aphid (MYZUPE) and Sweetpotato Whitefly-crawler (WF) (BEMITA)” (See Table Section).

Test [2] has as its system Green Peach Aphid (Myzus persicae) (GPA) (MYZUPE). Nature of the test: Bioassay for Green Peach Aphid, foliar spray on infested cabbage seedlings. It is filed as in vivo. The conditions noted are these: 72 h, 200 ppm foliar spray on cabbage, graded after three days, Abbott-corrected % control, read-out: % Control (or Mortality) rating, GPA. The protocol:
Example A: Bioassays for Green Peach Aphid (Myzus persicae) (GPA) (MYZUPE)
Cabbage seedlings grown in 3-inch pots, with 2-3 small (3-5 cm) true leaves, were used as test substrate. The seedlings were infested with 20-50 GPA (wingless adult and nymph stages) one day prior to chemical application. Four pots with individual seedlings were used for each treatment. Test compounds (2 mg) were dissolved in 2 mL of acetonemethanol (1:1) solvent, forming stock solutions of 1000 ppm test compound. The stock solutions were diluted 5× with 0.025% Tween 20 in H2O to obtain the solution at 200 ppm test compound. A hand-held aspirator-type sprayer was used for spraying a solution to both sides of […] leaves until runoff. Reference plants (solvent check) were sprayed with the diluent only containing 20% by volume of acetonemethanol (1:1) solvent. Treated plants were held in a holding room for three days at approximately 25° C. and ambient relative humidity (RH) prior to grading. Evaluation was conducted by counting the number of live aphids per plant under a microscope. Percent control was measured by using Abbott's correction formula (W. S. Abbott, “A Method of Computing the Effectiveness of an Insecticide,” J. Econ. Entomol. 18 (1925), pp. 265-267) as follows. Corrected % Control=100*(X−Y)/X • where • X=No. of live aphids on solvent check plants and • Y=No. of live aphids on treated plants The results are indicated in the table entitled “TABLE 2. Biological Data for Green Peach Aphid (MYZUPE) and Sweetpotato Whitefly-crawler (WF) (BEMITA)” (See Table Section).

In the case of `C#CCN(C(=O)C(CSC(c1ccccc1)(c1ccccc1)c1ccccc1)=NOCC)c1cn(-c2cccnc2)nc1Cl` [Compound F1, N-(3-chloro-1-(pyridin-3-yl)-1H-pyrazol-4-yl)-2-(ethoxyimino)-N-(prop-2-yn-1-yl)-3-(tritylthio)propanamide], the mortality at 200 ppm in test [1] was 0 to 80%; in test [2], less than 0%.
On the same counts, the results for `C#CCN(C(=O)C(CSCC1CC1(F)F)=NOC)c1cn(-c2cccnc2)nc1Cl` (stereo not drawn) [Compound F2, N-(3-Chloro-1-(pyridin-3-yl)-1H-pyrazol-4-yl)-3-(((2,2-difluorocyclopropyl)methyl)thio)-2-(methoxyimino)-N-(prop-2-yn-1-yl)propanamide] are 80 to 100% and 80 to 100%.
On the same counts, the results for `CCN(C(=O)C(CS(=O)(=O)CC1CC1(F)F)=NOC)c1cn(-c2cccnc2)nc1Cl` (stereo not drawn) [Compound F3] are 80 to 100% and 80 to 100%.
The corresponding values for `C#CCN(C(=O)C(CSC(c1ccccc1)(c1ccccc1)c1ccccc1)=NOC)c1cn(-c2cccnc2)nc1Cl` [Compound F4, N-(3-chloro-1-(pyridin-3-yl)-1H-pyrazol-4-yl)-2-(methoxyimino)-N-(prop-2-yn-1-yl)-3-(tritylthio)propanamide] are 0 to 80% and less than 0%.
Turning to `CCN(C(=O)C(CSCC1CC1(F)F)=NOC)c1cn(-c2cccnc2)nc1Cl` (stereo not drawn) [Compound F5], the mortality at 200 ppm in test [1] and in test [2] was 80 to 100% throughout.
`C#CCN(C(=O)C(CSCC(F)(F)F)=NOC)c1cn(-c2cccnc2)nc1Cl` [Compound F6, N-(3-Chloro-1-(pyridin-3-yl)-1H-pyrazol-4-yl)-2-(methoxyimino)-N-(prop-2-yn-1-yl)-3-((2,2,2-trifluoroethyl)thio)propanamide]: the mortality at 200 ppm in test [1] and in test [2] was 80 to 100% each time.
On to `C#CCN(C(=O)C(CS)=NOCC)c1cn(-c2cccnc2)nc1Cl` [Compound F7, N-(3-Chloro-1-(pyridin-3-yl)-1H-pyrazol-4-yl)-2-(ethoxyimino)-3-mercapto-N-(prop-2-yn-1-yl)propanamide], for which the mortality at 200 ppm in test [1] was less than 0%; in test [2], 80 to 100%.
In the case of `CCN(C(=O)C(CS(=O)(=O)CCC(F)(F)F)=NOC)c1cn(-c2cccnc2)nc1Cl` [Compound F8, N-(3-Chloro-1-(pyridin-3-yl)-1H-pyrazol-4-yl)-N-ethyl-2-(methoxyimino)-3-((3,3,3-trifluoropropyl)sulfonyl)propanamide], the mortality at 200 ppm in test [1] and in test [2] was 80 to 100% throughout.
With `CCN(C(=O)C(CS)=NOC)c1cn(-c2cccnc2)nc1Cl` [Compound F9, N-(3-Chloro-1-(pyridin-3-yl)-1H-pyrazol-4-yl)-N-ethyl-3-mercapto-2-(methoxyimino)propanamide], the mortality at 200 ppm in test [1] was in the range of 0 to 80%; in test [2], 80 to 100%.
Consider `CCON=C(CSCC1CC1(F)F)C(=O)N(CC)c1cn(-c2cccnc2)nc1Cl` (stereo not drawn) [Compound F11, N-(3-Chloro-1-(pyridin-3-yl)-1H-pyrazol-4-yl)-3-(((2,2-difluorocyclopropyl)methyl)thio)-2-(ethoxyimino)-N-ethylpropanamide], for which the mortality at 200 ppm in test [1] and in test [2] was 80 to 100% each time.
Take `CCON=C(CSC(c1ccccc1)(c1ccccc1)c1ccccc1)C(=O)N(CC)c1cn(-c2cccnc2)nc1Cl` [Compound F12, N-(3-chloro-1-(pyridin-3-yl)-1H-pyrazol-4-yl)-2-(ethoxyimino)-N-ethyl-3-(tritylthio)propanamide]: the mortality at 200 ppm in test [1] fell in the range of 80 to 100%; in test [2] it was 0 to 80%.
`C=CCON=C(CSC(c1ccccc1)(c1ccccc1)c1ccccc1)C(=O)N(CC)c1cn(-c2cccnc2)nc1Cl` [Compound F13, 2-((Allyloxy)imino)-N-(3-chloro-1-(pyridin-3-yl)-1H-pyrazol-4-yl)-N-ethyl-3-(tritylthio)propanamide]: the mortality at 200 ppm in test [1] and in test [2] was 0 to 80% in each case.
